Source: patent US20060088471A1, “Compounds for enzyme inhibition” (Proteolix, Inc., priority 2004, published 2006)

Experiments:
[1] = target: T1, chymotryptic-like activity of the proteasome in HT29 cells (Homo sapiens, UniProt P28074); test: Cell chymotryptic activity in HT29 cells; type: cell-based; conditions: 4 hr
T1 construct: endogenous in cells; host or cells: HT29 cells
Procedure: (§1) The ability of Inhibitor 1 to inhibit the proteolytic activity of the human 20S proteasome (hu20S) both in vitro and in cells was tested using the fluorescent substrate for the chymotryptic-like activity of the proteasome, Suc-LLVY-AMC as shown in FIG. 1 and Table 1. Fluorescence was measured using the excitation wavelength of 340 nm and an emission wavelength of 465 nm. […] The assay was carried out in 20 mM Tris, pH 8.0, 0.5 mM EDTA, 0.03% SDS buffer with 5% DMSO.

HT29 cells = test: Cell viability, HT29; type: cell-based; conditions: Homo sapiens, HT-29, 72 hr
[2] = test system: chymotryptic-like activity of the proteasome in 8226 cells; test: Cell chymotryptic activity in 8226 cells; type: cell-based, human; conditions: 1 hr
Procedure: as §1

[3] = target: human 20S proteasome (hu20S) (Homo sapiens, UniProt P28074); test: Human 20S chymotryptic activity, Suc-LLVY-AMC cleavage; type: biochemical; conditions: for Human 20S Chymotryptic Activity kinact./Ki: 10 μM Suc-LLVY-AMC, 1 nM hu20S, 20 mM Tris pH 8.0, 0.5 mM EDTA, 0.03% SDS, 5% DMSO; for IC50 / kinact/KI: Suc-LLVY-AMC substrate; for IC50: read-out: Human 20S Chymotryptic Activity Vf IC50; for kinact/KI: read-out: Human 20S Chymotryptic Activity kobs/[I]
Procedure: Proteasome activity was measured via LLVY-AMC cleavage. Fluorescence was measured using the excitation wavelength of 340 nm and an emission wavelength of 465 nm. The assay was carried out in 20 mM Tris, pH 8.0, 0.5 mM EDTA, 0.03% SDS buffer with 5% DMSO.
as §1

8226 cells = test: Cell viability, 8226; type: cell-based; conditions: 24 hr
[4] = target: β5 subunit of human 20S or whole blood lysate (Homo sapiens, UniProt P28074); test: Streptavidin gel shift assay compared with chymotryptic substrate cleavage assay; type: biochemical; conditions: probe Inhibitor 3
Procedure: Human 20S (50 nM) or whole blood lysate (100 mg/mL) was pretreated with either DMSO or Inhibitor 4 (200 nM) for 1 h. Inhibitor 3 (1 μM) was then added. After 1 h, unbound Inhibitor 3 was removed using a spin desalting column and the resulting solution was diluted (1:10) in 1% SDS and heated at 90° C. to denature the proteins. The solution was cooled to room temperature and streptavidin (±1 μg/15 μL) was added. The inhibitor/streptavidin solution was then added to NuPAGE sample buffer at room temperature (not boiled). The sample was then loaded on NuPAGE gel and run at 150 V in a refrigerator at approximately 4° C.

[5] = target: purified human 20S proteasome (Homo sapiens, UniProt P28074); test: Binding to the proteasome via fluorescence polarization; conditions: 2 nM inhibitor
Procedure: Fluorescence was measured using the excitation wavelength of 485 nm and an emission wavelength of 535 nm.
2 nM of Inhibitor 1 was incubated with a serial dilution of purified human 20S proteasome (from 400 pM to 40 nM) in a 20 mM Tris, pH 8.0, 0.5 mM EDTA, 0.03% SDS buffer and was allowed to bind to the proteasome during an incubation at room temperature as shown in FIG. 2. Fluorescence polarization was measured by exciting the samples at 485 nm and detecting the emitted fluorescence at 535 nm in a microwell plate in a fluorimeter capable of measuring fluorescence polarization (Tecan GENios Pro). […] When the concentration of human 20S was low (free Inhibitor 1), the mP was about 40 millipolarization units (mP). The fluorescence polarization at high concentrations of human 20S (bound Inhibitor 1) was about 110 mP.

p53 levels = conditions: epoxomicin treatment; cited from earlier work

Molecule `CC(=O)N[C@@H](CCc1ccccc1)C(=O)N[C@@H](CC(C)C)C(=O)N[C@@H](Cc1ccccc1)C(=O)N[C@@H](CC(C)C)C(=O)[C@@]1(C)CO1` [YU101] has an IC50 [1] of 3.3 nM, an IC50 (HT29 cells) of 6.8 nM and an IC50 [2] of 7.3 nM. The “Human 20S Chymotryptic Activity kinact./Ki” value [3] was 105,000 M^-1sec^-1, the IC50 [3] was 2 nM and the kinact/KI [3] was 93500 M⁻¹ s⁻¹. The IC50 (8226 cells) was 5 nM.
For `CC(C)C[C@H](NC(=O)[C@H](CCc1ccccc1)NC(=O)CN1CCOCC1)C(=O)N[C@@H](Cc1ccccc1)C(=O)N[C@@H](CC(C)C)C(=O)[C@@]1(C)CO1` [Inhibitor 4], the “Dose response: gel shift assay versus chymotryptic substrate cleavage assay” value [4] was “comparable IC50 values”.
In the case of `CC(C)C[C@H](NC(=O)[C@H](CCc1ccccc1)NC(=O)c1ccc(C2=C3C=CC(O)C=C3Oc3cc(O)ccc32)c(C(=O)O)c1)C(=O)N[C@@H](Cc1ccccc1)C(=O)N[C@@H](CC(C)C)C(=O)[C@@]1(C)CO1` (single isomer, unassigned) [Inhibitor 1], the IC50 [2] is reported as 340 nM, the “Fluorescence polarization, bound Inhibitor 1” value ([5]; high concentrations of human 20S) is reported as “about 110 mP” and the “Fluorescence polarization, free Inhibitor 1” value ([5]; low concentration of human 20S) is reported as “about 40 mP”. For the same molecule, the “Human 20S Chymotryptic Activity kinact./Ki” value [3] was 27,000 M^-1sec^-1, the IC50 [3] was 9.4 nM and the kinact/KI [3] was 23000 M⁻¹ s⁻¹. It also gave an IC50 (8226 cells) of 191 nM.
In the case of `CC[C@H](C)[C@H](NC(=O)[C@H]([C@@H](C)CC)N(C)C(C)=O)C(=O)N[C@H](C(=O)N[C@@H](CC(C)C)C(=O)[C@@]1(C)CO1)[C@@H](C)O` [epoxomicin], the p53 levels stabilized (p53 levels) is given as “over 50 fold”.
